Test results taken from BindingDB's records for doi:10.1021/jm00346a010 (1982).

What was measured:
[1] = target: Adenylate kinase (Escherichia coli) (UniProt P69441); test: Ability to inhibit Escherichia coli adenylate kinase II, activity expressed as Inhibition constant
[2] = target: Adenylate kinase (Escherichia coli) (UniProt P69441); test: Ability to inhibit Escherichia coli adenylate kinase III, activity expressed as Inhibition constant; Non competitive inhibition

Ki [1] [mM] | Ki [2] [mM] | SMILES
7.3 |  | NCCCCCCNc1nc2c(N)ncnc2n1C1O[C@H](COP(=O)(O)OP(=O)(O)OP(=O)(O)O)[C@@H](O)[C@H]1O (stereo not given in full)
 | 4.8 | O=C(CI)NCCCCCNc1ncnc2c1ncn2[C@@H]1O[C@H](COP(=O)(O)OP(=O)(O)OP(=O)(O)O)[C@@H](O)[C@H]1O
6.7 |  | CC(=O)NCCCCCCNc1nc2c(N)ncnc2n1C1O[C@H](COP(=O)(O)OP(=O)(O)OP(=O)(O)O)[C@@H](O)[C@H]1O (stereo not given in full)
6.8 |  | CN(CCCN(C)C(=O)CCCCNc1ncnc2c1ncn2[C@@H]1O[C@H](COP(=O)(O)OP(=O)(O)OP(=O)(O)O)[C@@H](O)[C@H]1O)C(=O)CCCCNC(=O)OCc1ccccc1
4.7 |  | O=C(NCCCCCNc1ncnc2c1ncn2C1O[C@H](COP(=O)(O)OP(=O)(O)OP(=O)(O)O)[C@@H](O)[C@H]1O)OCc1ccccc1 (stereo not given in full)
